Experimental data from patent publication US20140303164A1, “THERAPEUTIC COMPOUNDS” (Gilead Sciences, Inc., priority 2013, published 2014).

Columns and labels:
[1] = Test B: Cytotoxicity Assay; format: cell-based; conditions: human, uninfected MT-4 cells, same protocol as Test A
In short: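 Uninfected MT-4 cells (2000 per well) incubated with diluted compound at 37° C. for 5 days, following the antiviral protocol without HIV-IIIb.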

HIV-IIIb = experiment: Test A: Antiviral Assay in MT4 Cells; format: cell-based, HIV-1; conditions: Human immunodeficiency virus 1, IIIB, MT4, 120 h; for inhibition at 0.2 µM: read-out: % inhibition at 0.2 μM; for inhibition at 2 µM: read-out: % inhibition at 2 μM
Experimental: Test A: Antiviral Assay in MT4 Cells
MT-4 cells were next mixed with HIV-IIIb at an m.o.i of 0.003 for 1 hour, after which time 35 μL of virus/cell mixture (2000 cells) was immediately added to each well containing 40 μL of diluted compound. The plates were then incubated at 37° C. for 5 days. […] Cell lysis was carried out by incubating at room temperature for 10 min and then chemiluminescence was read.

Cn1nc(NC(=O)C(F)(F)F)c2c(Cl)ccc(-c3ccc(C#CC(C)(C)O)nc3[C@H](Cc3cc(F)cc(F)c3)NC(=O)Cn3nc(C(F)F)c4c3C(F)(F)[C@@H]3C[C@H]43)c21 [Compound 98, N-(4-chloro-7-(2-((S)-1-(2-((3bS,4aR)-3-(difluoromethyl)-5,5-difluoro-3b,4,4a,5-tetrahydro-1H-cyclopropa[3,4]cyclopenta[1,2-c]pyrazol-1-yl)acetamido)-2-(3,5-difluorophenyl)ethyl)-6-(3-hydroxy-3-methylbut-1-yn-1-yl)pyridin-3-yl)-1-methyl-1H-indazol-3-yl)-2,2,2-trifluoroacetamide]
CC50 at 5 days [1]: 8.41 µM
inhibition at 0.2 µM (HIV-IIIb): 100%
inhibition at 2 µM (HIV-IIIb): 100%

CN(C)CC(=O)Nc1nn(C)c2c(-c3ccc(C#CC(C)(C)O)nc3[C@H](Cc3cc(F)cc(F)c3)NC(=O)Cn3nc(C(F)F)c4c3C(F)(F)[C@@H]3C[C@H]43)ccc(Cl)c12 [Compound 99B, N—((S)-1-(3-(4-chloro-3-(2-(dimethylamino)acetamido)-1-methyl-1H-indazol-7-yl)-6-(3-hydroxy-3-methylbut-1-yn-1-yl)pyridin-2-yl)-2-(3,5-difluorophenyl)ethyl)-2-((3b-S,4aR)-3-(difluoromethyl)-5,5-difluoro-3b,4,4a,5-tetrahydro-1H-cyclopropa[3,4]cyclopenta[1,2-c]pyrazol-1-yl)acetamide]
CC50 at 5 days [1]: 6.37 µM
inhibition at 0.2 µM (HIV-IIIb): 100%
inhibition at 2 µM (HIV-IIIb): 100%

Cn1nc(NC(=O)CN2CCCC2)c2c(Cl)ccc(-c3ccc(C#CC(C)(C)O)nc3[C@H](Cc3cc(F)cc(F)c3)NC(=O)Cn3nc(C(F)F)c4c3C(F)(F)[C@@H]3C[C@H]43)c21 [Compound 100, N—((S)-1-(3-(4-chloro-1-methyl-3-(2-(pyrrolidin-1-yl)acetamido)-1H-indazol-7-yl)-6-(3-hydroxy-3-methylbut-1-yn-1-yl)pyridin-2-yl)-2-(3,5-difluorophenyl)ethyl)-2-((3b-S,4aR)-3-(difluoromethyl)-5,5-difluoro-3b,4,4a,5-tetrahydro-1H-cyclopropa[3,4]cyclopenta[1,2-c]pyrazol-1-yl)acetamide]
CC50 at 5 days [1]: 5.14 µM
inhibition at 0.2 µM (HIV-IIIb): 99%
inhibition at 2 µM (HIV-IIIb): 99%

CNCC(=O)Nc1nn(C)c2c(-c3ccc(C#CC(C)(C)O)nc3[C@H](Cc3cc(F)cc(F)c3)NC(=O)Cn3nc(C(F)F)c4c3C(F)(F)[C@@H]3C[C@H]43)ccc(Cl)c12 [Compound 101, N—((S)-1-(3-(4-chloro-1-methyl-3-(2-(methylamino)acetamido)-1H-indazol-7-yl)-6-(3-hydroxy-3-methylbut-1-yn-1-yl)pyridin-2-yl)-2-(3,5-difluorophenyl)ethyl)-2-((3bS,4aR)-3-(difluoromethyl)-5,5-difluoro-3b,4,4a,5-tetrahydro-1H-cyclopropa[3,4]cyclopenta[1,2-c]pyrazol-1-yl)acetamide]
CC50 at 5 days [1]: 6.53 µM
inhibition at 0.2 µM (HIV-IIIb): 95%
inhibition at 2 µM (HIV-IIIb): 95%

Cn1nc(NC(=O)CNC2CC2)c2c(Cl)ccc(-c3ccc(C#CC(C)(C)O)nc3[C@H](Cc3cc(F)cc(F)c3)NC(=O)Cn3nc(C(F)F)c4c3C(F)(F)[C@@H]3C[C@H]43)c21 [Compound 102, N—((S)-1-(3-(4-chloro-3-(2-(cyclopropylamino)acetamido)-1-methyl-1H-indazol-7-yl)-6-(3-hydroxy-3-methylbut-1-yn-1-yl)pyridin-2-yl)-2-(3,5-difluorophenyl)ethyl)-2-((3b-S,4aR)-3-(difluoromethyl)-5,5-difluoro-3b,4,4a,5-tetrahydro-1H-cyclopropa[3,4]cyclopenta[1,2-c]pyrazol-1-yl)acetamide]
CC50 at 5 days [1]: 5.82 µM
inhibition at 0.2 µM (HIV-IIIb): 100%
inhibition at 2 µM (HIV-IIIb): 100%

C[C@H](O)C(=O)Nc1nn(C)c2c(-c3ccc(C#CC(C)(C)O)nc3[C@H](Cc3cc(F)cc(F)c3)NC(=O)Cn3nc(C(F)F)c4c3C(F)(F)[C@@H]3C[C@H]43)ccc(Cl)c12 [Compound 103, (S)—N-(4-chloro-7-(2-((S)-1-(2-((3bS,4aR)-3-(difluoromethyl)-5,5-difluoro-3b,4,4a,5-tetrahydro-1H-cyclopropa[3,4]cyclopenta[1,2-c]pyrazol-1-yl)acetamido)-2-(3,5-difluorophenyl)ethyl)-6-(3-hydroxy-3-methylbut-1-yn-1-yl)pyridin-3-yl)-1-methyl-1H-indazol-3-yl)-2-hydroxypropanamide]
CC50 at 5 days [1]: 6.79 µM
inhibition at 0.2 µM (HIV-IIIb): 100%
inhibition at 2 µM (HIV-IIIb): 100%

Cn1nc(NS(C)(=O)=O)c2cccc(-c3ccc(C#CC(C)(C)N)nc3[C@H](Cc3cc(F)cc(F)c3)NC(=O)Cn3nc(C(F)(F)F)c4c3C(F)(F)[C@@H]3C[C@H]43)c21 [Compound 104, N—((S)-1-(6-(3-amino-3-methylbut-1-yn-1-yl)-3-(1-methyl-3-(methylsulfonamido)-1H-indazol-7-yl)pyridin-2-yl)-2-(3,5-difluorophenyl)ethyl)-2-((3bS,4aR)-5,5-difluoro-3-(trifluoromethyl)-3b,4,4a,5-tetrahydro-1H-cyclopropa[3,4]cyclopenta[1,2-c]pyrazol-1-yl)acetamide]
CC50 at 5 days [1]: 7.46 µM
inhibition at 0.2 µM (HIV-IIIb): 100%
inhibition at 2 µM (HIV-IIIb): 100%

CC(C)(O)C#Cc1ccc(-c2ccc3nnc(N)n3c2)c([C@H](Cc2cc(F)cc(F)c2)NC(=O)Cn2nc(C(F)F)c3c2C(F)(F)[C@@H]2C[C@H]32)n1 [Compound 105E, N—((S)-1-(3-(3-amino-[1,2,4]triazolo[4,3-a]pyridin-6-yl)-6-(3-hydroxy-3-methylbut-1-yn-1-yl)pyridin-2-yl)-2-(3,5-difluorophenyl)ethyl)-2-((3b-S,4aR)-3-(difluoromethyl)-5,5-difluoro-3b,4,4a,5-tetrahydro-1H-cyclopropa[3,4]cyclopenta[1,2-c]pyrazol-1-yl)acetamide]
CC50 at 5 days [1]: 31.5 µM
inhibition at 2 µM (HIV-IIIb): 74%

CC(C)(O)C#Cc1ccc(-c2ccc(Cl)n3c(N)nnc23)c([C@H](Cc2cc(F)cc(F)c2)NC(=O)Cn2nc(C(F)F)c3c2C(F)(F)[C@@H]2C[C@H]32)n1 [Compound 106E, N—((S)-1-(3-(3-amino-5-chloro-[1,2,4]triazolo[4,3-a]pyridin-8-yl)-6-(3-hydroxy-3-methylbut-1-yn-1-yl)pyridin-2-yl)-2-(3,5-difluorophenyl)ethyl)-2-((3b-S,4aR)-3-(difluoromethyl)-5,5-difluoro-3b,4,4a,5-tetrahydro-1H-cyclopropa[3,4]cyclopenta[1,2-c]pyrazol-1-yl)acetamide]
CC50 at 5 days [1]: 12.4 µM
inhibition at 0.2 µM (HIV-IIIb): 95%
inhibition at 2 µM (HIV-IIIb): 96%

Cn1nc(O)c2cccc(-c3ccc(C#CC(C)(C)O)nc3[C@H](Cc3cc(F)cc(F)c3)NC(=O)Cn3nc(C(F)F)c4c3C(F)(F)[C@@H]3C[C@H]43)c21 [Compound 107B, 2-((3bS,4aR)-3-(difluoromethyl)-5,5-difluoro-3b,4,4a,5-tetrahydro-1H-cyclopropa[3,4]cyclopenta[1,2-c]pyrazol-1-yl)-N—((S)-2-(3,5-difluorophenyl)-1-(6-(3-hydroxy-3-methylbut-1-yn-1-yl)-3-(1-methyl-3-oxo-2,3-dihydro-1H-indazol-7-yl)pyridin-2-yl)ethyl)acetamide]
CC50 at 5 days [1]: 5.3 µM
inhibition at 0.2 µM (HIV-IIIb): 95%
inhibition at 2 µM (HIV-IIIb): 95%

CC(C)(O)C#Cc1ccc(-c2ccc(Cl)c3c(NS(C)(=O)=O)n[nH]c23)c([C@H](Cc2cc(F)cc(F)c2)NC(=O)Cn2nc(C(F)F)c3c2C(F)(F)[C@@H]2C[C@H]32)n1 [Compound 108C, N—((S)-1-(3-(4-chloro-3-(methylsulfonamido)-1H-indazol-7-yl)-6-(3-hydroxy-3-methylbut-1-yn-1-yl)pyridin-2-yl)-2-(3,5-difluorophenyl)ethyl)-2-((3b-S,4aR)-3-(difluoromethyl)-5,5-difluoro-3b,4,4a,5-tetrahydro-1H-cyclopropa[3,4]cyclopenta[1,2-c]pyrazol-1-yl)acetamide]
CC50 at 5 days [1]: > 53.1 µM
inhibition at 0.2 µM (HIV-IIIb): 94%
inhibition at 2 µM (HIV-IIIb): 94%

CC(C)(O)C#Cc1ccc(-c2ccc(Cl)c3c(NS(C)(=O)=O)n[nH]c23)c([C@H](Cc2cc(F)cc(F)c2)NC(=O)Cn2nc(C(F)(F)F)c3c2C(F)(F)[C@@H]2C[C@H]32)n1 [Compound 109, N—((S)-1-(3-(4-chloro-3-(methylsulfonamido)-1H-indazol-7-yl)-6-(3-hydroxy-3-methylbut-1-yn-1-yl)pyridin-2-yl)-2-(3,5-difluorophenyl)ethyl)-2-((3b-S,4aR)-5,5-difluoro-3-(trifluoromethyl)-3b,4,4a,5-tetrahydro-1H-cyclopropa[3,4]cyclopenta[1,2-c]pyrazol-1-yl)acetamide]
CC50 at 5 days [1]: 29.6 µM
inhibition at 0.2 µM (HIV-IIIb): 97%
inhibition at 2 µM (HIV-IIIb): 97%

CC(C)(O)C#Cc1ccc(-c2ccc(Cl)n3c(NS(C)(=O)=O)nnc23)c([C@H](Cc2cc(F)cc(F)c2)NC(=O)Cn2nc(C(F)F)c3c2C(F)(F)[C@@H]2C[C@H]32)n1 [Compound 110E, N—((S)-1-(3-(5-chloro-3-(methylsulfonamido)-[1,2,4]triazolo[4,3-a]pyridin-8-yl)-6-(3-hydroxy-3-methylbut-1-yn-1-yl)pyridin-2-yl)-2-(3,5-difluorophenyl)ethyl)-2-((3b-S,4aR)-3-(difluoromethyl)-5,5-difluoro-3b,4,4a,5-tetrahydro-1H-cyclopropa[3,4]cyclopenta[1,2-c]pyrazol-1-yl)acetamide]
CC50 at 5 days [1]: > 53.2 µM
inhibition at 0.2 µM (HIV-IIIb): 15%
inhibition at 2 µM (HIV-IIIb): 98%
